Measured values published in ChEMBL document CHEMBL5108020, “Design and synthesis of novel benzimidazole derivatives as potential Pseudomonas aeruginosa anti-biofilm agents inhibiting LasR: Evidence from comprehensive molecular dynamics simulation and in vitro investigation” (Eur J Med Chem, 2022).
Blank lines part the entries; values can stand above or below the compound they belong to.

Experiments:
[1] = target: T1, Transcriptional activator protein LasR (Pseudomonas aeruginosa (strain ATCC 15692 / PAO1 / 1C / PRS 101 / LMG12228)) (UniProt P25084); test: Inhibition of Pseudomonas aeruginosa MH602 LasR co-transfected with ASVgfp reporter assessed as inhibition of GFP production at 250 uM by fluorescence based analysis
T1 sequence (whole entry): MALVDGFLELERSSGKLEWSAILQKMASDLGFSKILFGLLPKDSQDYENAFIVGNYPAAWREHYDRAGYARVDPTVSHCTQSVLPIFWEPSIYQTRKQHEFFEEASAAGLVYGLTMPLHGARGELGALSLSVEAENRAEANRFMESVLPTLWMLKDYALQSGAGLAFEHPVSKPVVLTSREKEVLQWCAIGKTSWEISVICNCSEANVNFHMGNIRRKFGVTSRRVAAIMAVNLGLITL

[2] = target: T1, Transcriptional activator protein LasR (Pseudomonas aeruginosa (strain ATCC 15692 / PAO1 / 1C / PRS 101 / LMG12228)); test: Inhibition of Pseudomonas aeruginosa MH602 LasR co-transfected with ASVgfp reporter assessed as inhibition of GFP production at 62.5 uM by fluorescence based analysis
[3] = target: T1, Transcriptional activator protein LasR (Pseudomonas aeruginosa (strain ATCC 15692 / PAO1 / 1C / PRS 101 / LMG12228)); test: Inhibition of Pseudomonas aeruginosa MH602 LasR co-transfected with ASVgfp reporter assessed as inhibition of GFP production at 125 uM by fluorescence based analysis
[4] = target: T2, HTH-type quorum-sensing regulator RhlR (Pseudomonas aeruginosa (strain ATCC 15692 / PAO1 / 1C / PRS 101 / LMG12228), UniProt P54292); test: Inhibition of Pseudomonas aeruginosa PAO1 RhlR co-transfected with LVAgfp reporter assessed as inhibition of GFP production measured after 12 to 24 hrs by fluorescence based analysis
T2 sequence (P54292 whole entry): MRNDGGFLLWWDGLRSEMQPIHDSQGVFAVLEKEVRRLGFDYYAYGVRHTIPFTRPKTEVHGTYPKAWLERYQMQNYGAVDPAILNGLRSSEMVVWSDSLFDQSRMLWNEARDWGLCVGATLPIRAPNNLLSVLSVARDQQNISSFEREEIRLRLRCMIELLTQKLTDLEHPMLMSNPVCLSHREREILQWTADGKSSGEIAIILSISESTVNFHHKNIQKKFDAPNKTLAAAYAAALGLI

[5] = target: T3, Transcriptional activator protein LasR (Pseudomonas aeruginosa (strain ATCC 15692 / PAO1 / 1C / PRS 101 / LMG12228), UniProt P25084); test: Inhibition of Pseudomonas aeruginosa PAO1 LasR co-transfected with LVAgfp reporter assessed as inhibition of GFP production measured after 12 to 24 hrs by fluorescence based analysis
T3 sequence (P25084 whole entry): T1 sequence (whole entry)

[6] = target: T3, Transcriptional activator protein LasR; test: Inhibition of Pseudomonas aeruginosa PAO-JG21 LasR co-transfected with LVAgfp reporter assessed as inhibition of GFP production by fluorescence based analysis
[7] = target: T2, HTH-type quorum-sensing regulator RhlR; test: Inhibition of Pseudomonas aeruginosa PAO1 RhlR
[8] = target: T3, Transcriptional activator protein LasR; test: Inhibition of Pseudomonas aeruginosa PAO1 LasR
[9] = target: T3, Transcriptional activator protein LasR; test: Inhibition of Pseudomonas aeruginosa PAO-JP2 LasR co-transfected with LVAgfp reporter assessed as inhibition of GFP production by fluorescence based analysis

inhibition [1]: 68.2% | inhibition [2]: 63.7% | inhibition [3]: 67.1%
Structure (SMILES): O=C(Cn1cc(-c2ccc([N+](=O)[O-])cc2)nn1)Nc1nc2ccccc2[nH]1

IC50 [4]: 12.5 µM | IC50 [5]: 37.5 µM
Structure (SMILES): Cc1cc2nc(N)[nH]c2cc1C

IC50 [6]: 1.4 µM | IC50 [7]: 285 µM | IC50 [8]: 399 µM | IC50 [9]: 2.3 µM
Structure (SMILES): Nc1nc2ccccc2[nH]1
